Reference: US20220257774A1, “AROMATIC AMINE AR AHD BET TARGETING PROTEIN DEGRADATION CHIMERA COMPOUND AND USE” (HINOVA PHARMACEUTICALS INC., priority 2019, published 2022)

test system: LNCaP/AR cells; test: Inhibition of the proliferation of LNCap/AR cells (CCK-8); assay type: cell-based; conditions: 144 h; LNCaP/AR cells, 6 days culture, CCK-8; read-out: LNCap/AR IC50
Excerpt: 1. Biological Assay of the Inhibition on the Proliferation of LNCap/AR Cells
(1) Experimental materials and instruments: LNCaP/AR cell line and 22RV1 cell line (provided by Sichuan Kangcheng Biotechnology Co., Ltd.) Fetal bovine serum FBS (Gibco, Cat. No. 10099-141) 0.01M PBS (Biosharp, Cat. No. 162262) RIPM1640 medium (Hyclone, Cat. No. 308090.01) Penicillin-Streptomycin (Hyclone, Cat. No. SV30010) Cell counting kit-8 (Signalway Antibody, Cat. No. CP002) DMSO (Sigma, Cat. No. D5879) Centrifuge Tube, 15 ml (Excell Bio, Cat. No. CS015-0001) Cell Culture Dish, (Excell Bio, Cat. No. CS016-0128) 96-well cell culture plate (Corning, Cat. No. 3599) Microplate reader (Thermo Multiskan MK3 type)
(2) Experimental Methods:
a. Preparation of Buffer Cell culture medium: RIPM1640 medium, 10% FBS, 1% Pen Strep: PBS buffer: PBS powder was dissolved in 2 L of ultrapure water and sterilized. b. Experimental Procedures 1) LNCaP/AR cells were subcultured in cell culture media, and then the cells in good growth condition were seeded in a 96-well plate at 80 μL/well (1000 cells/well), and cultured overnight in a 37° C., 5% CO2 cell incubator. 2) The drug was prepared into a 10 mM stock solution with dimethyl sulfoxide (DMSO). Prior to use, the stock solution was diluted in a ratio of […] with DMSO, and then diluted at a 3-fold gradient to obtain 9 serial concentrations. Then, each concentration of compound was further diluted in a ratio of 1:200 with the culture medium (to ensure that the DMSO concentration in the culture system was 0.1%), and two wells were set for each concentration. 20 μL of the diluted compound solution was added to the well of the cell culture (with a final concentration of 10 μM, 3.3 μM, 1.1 μM . . . ), and then the plate was gently tapped to thoroughly mix. In addition, the experiment included 3 negative control wells only containing cells and 3 blank control wells only containing culture medium (6 wells were each added with DMSO diluted in a ratio of 1:200 with 20 μL of culture medium). c. Result Detection: 1) After culturing for 6 days, 10 μL of CCK-8 was added to each well, and the plate was further incubated for 1 h in a 37° C., 5% CO2 cell incubator. 2) The absorbance (OD value) was measured at 450 nm with a multifunctional microplate reader. 3) The data was analyzed by the Dose-response-inhibition equation in the software GraphPad Prism5, and the IC50 value was obtained. 2. Biological assay of the inhibition on the proliferation of other drug-resistant prostate cancer cells

SMILES | IC50 [nM]
CC(=O)O[C@@H]1C[C@@H](C(=O)N[C@@H](C)c2ccc(-c3scnc3C)cc2)N(C(=O)[C@@H](NC(=O)COCCCCCCN(c2ccc(-n3ccnc3)cc2)c2cc(-c3c(C)noc3C)ccc2C)C(C)(C)C)C1 [Compound 5, (3R,5S)-1-((S)-2-(2-((6-((4-(1H-imidazol-1-yl)phenyl)(5-(3,5-Dimethylisoxazol-4-yl)-2-methylphenyl)amino)n-hexyl)oxy)acetylamino)-3,3-dimethylbutyryl)-5-(((S)-1-(4-(4-methylthiazol-5-yl)phenyl)ethyl)formylamino)pyrrolidinyl-3-acetate] | > 2000
Cc1ccc(-c2c(C)noc2C)cc1N(CCCCCCOCC(=O)N[C@H](C(=O)N1C[C@H](O)C[C@H]1C(=O)N[C@@H](C)c1ccc(-c2scnc2C)cc1)C(C)(C)C)c1ccc(-n2ccnc2)cc1 [Compound 6, (2S,4R)-1-((S)-2-(2-((6-((4-(1H-imidazol-1-yl)phenyl)(5-(3,5-Dimethylisoxazol-4-yl)-2-methylphenyl)amino)n-hexyl)oxy)acetylamino)-3,3-dimethylbutyryl)-4-hydroxy-N—((S)-1-(4-(4-methylthiazol-5-yl)phenyl)ethyl)pyrrolidinyl-2-formamide] | 501 to 2000
CC(=O)O[C@@H]1C[C@@H](C(=O)N[C@@H](C)c2ccc(-c3scnc3C)cc2)N(C(=O)[C@@H](NC(=O)COCCCCCCCN(c2ccc(-n3ccnc3)cc2)c2cc(-c3c(C)noc3C)ccc2C)C(C)(C)C)C1 [Compound 7] | > 2000
Cc1ccc(-c2c(C)noc2C)cc1N(CCCCCCCOCC(=O)N[C@H](C(=O)N1C[C@H](O)C[C@H]1C(=O)N[C@@H](C)c1ccc(-c2scnc2C)cc1)C(C)(C)C)c1ccc(-n2ccnc2)cc1 [Compound 8] | 501 to 2000
CC(=O)O[C@@H]1C[C@@H](C(=O)N[C@@H](C)c2ccc(-c3scnc3C)cc2)N(C(=O)[C@@H](NC(=O)COCCCCCN(c2ccc(-n3ccnc3)c(Cl)c2)c2cc(-c3c(C)noc3C)ccc2C)C(C)(C)C)C1 [Compound 11, (3R,5S)-1-((S)-2-(2-((5-((3-chloro-4-(1H-imidazol-1-yl)phenyl)(5-(3,5-dimethylisoxazol-4-yl)-2-methylphenyl)amino)n-pentyl)oxy)acetylamino)-3,3-dimethylbutyryl)-5-(((S)-1-(4-(4-methylthiazol-5-yl)phenyl)ethyl)formylamino)pyrrolidinyl-3-acetate] | 501 to 2000
Cc1ccc(-c2c(C)noc2C)cc1N(CCCCCOCC(=O)N[C@H](C(=O)N1C[C@H](O)C[C@H]1C(=O)N[C@@H](C)c1ccc(-c2scnc2C)cc1)C(C)(C)C)c1ccc(-n2ccnc2)c(Cl)c1 [Compound 12, (2S,4R)-1-((S)-2-(2-((5-((3-chloro-4-(1H-imidazol-1-yl)phenyl)(5-(3,5-dimethylisoxazol-4-yl)-2-methylphenyl)amino)n-pentyl)oxy)acetylamino)-3,3-dimethylbutyryl)-4-hydroxy-N—((S)-1-(4-(4-methylthiazol-5-yl)phenyl)ethyl) pyrrolidinyl-2-formamide] | 101 to 500
Cc1ccc(-c2c(C)noc2C)cc1N(CCCCCOCC(=O)N[C@H](C(=O)N1C[C@H](O)C[C@H]1C(=O)N[C@@H](C)c1ccc(-c2scnc2C)cc1)C(C)(C)C)c1ccc(-n2ccnc2)c(F)c1 [Compound 14, (2S,4R)-1-((S)-2-(2-((5-((3-fluoro-4-(1H-imidazol-1-yl)phenyl)(5-(3,5-dimethylisoxazol-4-yl)-2-methylphenyl)amino)n-pentyl)oxy)acetylamino)-3,3-dimethylbutyryl)-4-hydroxy-N—((S)-1-(4-(4-methylthiazol-5-yl)phenyl)ethyl)pyrrolidinyl-2-formamide] | > 2000
Cc1ccc(-c2c(C)noc2C)cc1N(CCCCCOCC(=O)N[C@H](C(=O)N1C[C@H](O)C[C@H]1C(=O)N[C@@H](C)c1ccc(-c2scnc2C)cc1)C(C)(C)C)c1ccc(F)c(-n2ccnc2)c1 [Compound 16] | > 2000
CC(=O)O[C@@H]1C[C@@H](C(=O)N[C@@H](C)c2ccc(-c3scnc3C)cc2)N(C(=O)[C@@H](NC(=O)COCCCCCN(c2ccc(-n3ccnc3)cc2)c2cc3c(C)noc3cc2C)C(C)(C)C)C1 [Compound 17, (3R,5S)-1-((S)-2-(2-((5-((4-(1H-imidazol-1-yl)phenyl)(3,6-dimethylbenzo[d]isoxazol-5-yl)amino)pentyl)oxy)acetamido)-3,3-dimethylbutyryl)-5-((S)-1-(4-(4-methylthiazol-5-yl)phenyl)ethyl)carbamoyl)pyrrolidine-3-yl acetate] | > 2000
CC(=O)O[C@@H]1C[C@@H](C(=O)N[C@@H](C)c2ccc(-c3scnc3C)cc2)N(C(=O)[C@@H](NC(=O)COCCCCCN(c2ccc(-n3ccnc3)cc2)c2cc3onc(C)c3cc2C)C(C)(C)C)C1 [Compound 18, (3R,5S)-1-((S)-2-(2-((5-((4-(1H-imidazol-1-yl)phenyl)(3,5-dimethylbenzo[d]isoxazol-6-yl)amino)pentyl)oxy)acetamido)-3,3-dimethylbutyryl)-5-((S)-1-(4-(4-methylthiazol-5-yl)phenyl)ethyl)carbamoyl)pyrrolidine-3-yl acetate] | > 2000
Cc1ccc(-c2c(C)noc2C)cc1N(CCCCCOCC(=O)N[C@H](C(=O)N1C[C@H](O)C[C@H]1C(=O)N[C@@H](C)c1ccc(-c2scnc2C)cc1)C(C)(C)C)c1ccc(-n2ccnn2)c(Br)c1 [Compound 19] | < 100

same assay, conditions: LNCaP/AR cells, 6 days culture, CCK-8; read-out: LNCap/AR IC50

SMILES | IC50 [nM]
CC(=O)O[C@@H]1C[C@@H](C(=O)N[C@@H](C)c2ccc(-c3scnc3C)cc2)N(C(=O)[C@@H](NC(=O)COCCCCCN(c2ccc(-n3ccnc3)c(Br)c2)c2cc(-c3c(C)noc3C)ccc2C)C(C)(C)C)C1 [Compound 9, (3R,5S)-1-((S)-2-(2-((5-((3-bromo-4-(1H-imidazol-1-yl)phenyl)(5-(3,5-dimethylisoxazol-4-yl)-2-methylphenyl)amino)n-pentyl)oxy)acetylamino)-3,3-dimethylbutyryl)-5-(((S)-1-(4-(4-methylthiazol-5-yl)phenyl)ethyl)formylamino)pyrrolidinyl-3-acetate] | 501 to 2000

same assay, conditions: LNCaP/AR, 144 h, read-out: LNCap/AR IC50

SMILES | IC50 [nM]
CCN(c1ccc(C#N)c(Cl)c1)c1cc(-c2c(C)nn(CCCCCOCC(=O)N[C@H](C(=O)N3C[C@H](O)C[C@H]3C(=O)N[C@@H](C)c3ccc(-c4scnc4C)cc3)C(C)(C)C)c2C)ccc1C [Compound 1] | > 2000
CCN(c1ccc(C#N)c(Cl)c1)c1cc(-c2nn(CCCCCOCC(=O)N[C@H](C(=O)N3C[C@H](O)C[C@H]3C(=O)N[C@@H](C)c3ccc(-c4scnc4C)cc3)C(C)(C)C)cc2C)ccc1C [Compound 2] | > 2000
CC(=O)O[C@@H]1C[C@@H](C(=O)N[C@@H](C)c2ccc(-c3scnc3C)cc2)N(C(=O)[C@@H](NC(=O)COCCCCCN(c2ccc(C#N)c(Cl)c2)c2cc(-c3c(C)noc3C)ccc2C)C(C)(C)C)C1 [Compound 3] | 101 to 500
CC(=O)O[C@@H]1C[C@@H](C(=O)N[C@@H](C)c2ccc(-c3scnc3C)cc2)N(C(=O)[C@@H](NC(=O)COCCCCCN(c2ccc(C#N)c(C(F)(F)F)c2)c2cc(-c3c(C)noc3C)ccc2C)C(C)(C)C)C1 [Compound 4] | > 2000
CC(=O)O[C@@H]1C[C@@H](C(=O)N[C@@H](C)c2ccc(-c3scnc3C)cc2)N(C(=O)[C@@H](NC(=O)COCCCCCN(c2ccc(-n3ccnc3)c(F)c2)c2cc(-c3c(C)noc3C)ccc2C)C(C)(C)C)C1 [Compound 13, (3R,5S)-1-((S)-2-(2-((5-((3-fluoro-4-(1H-imidazol-1-yl)phenyl)(5-(3,5-dimethylisoxazol-4-yl)-2-methylphenyl)amino)n-pentyl)oxy)acetylamino)-3,3-dimethylbutyryl)-5-(((S)-1-(4-(4-methylthiazol-5-yl)phenyl)ethyl)formylamino)pyrrolidinyl-3-acetate] | > 2000
CC(=O)O[C@@H]1C[C@@H](C(=O)N[C@@H](C)c2ccc(-c3scnc3C)cc2)N(C(=O)[C@@H](NC(=O)COCCCCCN(c2ccc(F)c(-n3ccnc3)c2)c2cc(-c3c(C)noc3C)ccc2C)C(C)(C)C)C1 [Compound 15] | > 2000
